These results are taken from patent US10508107B2, “Morpholine derivative” (Hoffmann-La Roche Inc., priority 2016, dated 2019).

Read-outs that look alike come from different tables or passages of the source.

For one series, the target named is human TAAR1 (Homo sapiens (Human), UniProt Q96RJ0). Kind of series: cAMP functional assay in HEK293 cells expressing human TAAR1. The class given is cell-based. The settings on record: for hTAAR1 efficacy*: % agonist activity, β-phenylethylamine = 100% agonism; for EC50: cAMP, HEK293 cells expressing human TAAR1, read-out: hTAAR1 EC50. The procedure: For the construction of expression plasmids the coding sequences of human TAAR 1 were amplified from genomic DNA essentially as described by Lindemann et al.[14]. The Expand High Fidelity PCR System (Roche Diagnostics) was used with 1.5 mM Mg^2+ and purified PCR products were cloned into pCR2.1-TOPO cloning vector (Invitrogen) following the instructions of the manufacturer. PCR products were subcloned into the pIRESneo2 vector (BD Clontech, Palo Alto, Calif.), and expression vectors were sequence verified before introduction in cell lines.
human TAAR1, sequence (Q96RJ0 whole entry): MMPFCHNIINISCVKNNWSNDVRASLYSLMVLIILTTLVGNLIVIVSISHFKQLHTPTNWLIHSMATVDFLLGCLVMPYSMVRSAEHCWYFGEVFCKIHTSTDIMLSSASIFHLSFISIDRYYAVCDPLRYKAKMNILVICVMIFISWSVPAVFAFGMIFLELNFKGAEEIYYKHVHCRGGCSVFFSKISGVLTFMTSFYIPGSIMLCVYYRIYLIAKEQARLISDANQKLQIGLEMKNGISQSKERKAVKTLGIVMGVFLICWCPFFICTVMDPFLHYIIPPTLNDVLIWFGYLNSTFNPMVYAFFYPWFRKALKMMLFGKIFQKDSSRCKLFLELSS
HEK293 cells (ATCC # CRL-1573) were cultured essentially as described by Lindemann et al. (2005). For the generation of stably transfected cell lines HEK293 cells were transfected with the pIRESneo2 expression plasmids containing the TAAR coding sequences (described above) with Lipofectamine 2000 (Invitrogen) according to the instructions of the manufacturer, and 24 hrs post transfection the culture medium was supplemented with 1 mg/ml G418 (Sigma, Buchs, Switzerland). After a culture period of about 10 d clones were isolated, expanded and tested for responsiveness to trace amines (all compounds purchased from Sigma) with the cAMP Biotrak Enzyme immunoassay (EIA) System (Amersham) following the non-acetylation EIA procedure provided by the manufacturer.
cAMP measurements were performed as described previously (Revel et al., Proc. Natl. Acad. Sci. USA 2011, 108, 8485-8490). In brief, cells that expressed human TAAR1 were plated on 96-well plates (BIOCOAT 6640; Becton Dickinson, Allschwil, Switzerland) and incubated for 20 h at 37° C. Prior to stimulation of the cells with a broad concentration range of agonists for 30 min at 37° C., the cells were washed with PBS and preincubated with PBS that contained 1 mM 3-isobutyl-1-methylxanthine for 10 min at 37° C. and 5% CO2. Stimulation with 0.2% DMSO was set as the basal level, and the effect of 30 μM β-PEA was set as the maximal response. Subsequently, the cells were lysed, and cAMP assays were performed according to the manufacturer's instructions (cAMP kit; Upstate/Millipore, Schaffhausen, Switzerland). Finally, the plates were read with a luminometer (1420 Multilabel counter; PerkinElmer, Schwerzenbach, Switzerland), and the amount of cAMP was calculated. The results were obtained from at least three independent experiments. Experiments were run in duplicate or triplicate. EC50 values are presented as mean ±standard deviation (in μM).

The next series deals with human DAT (Homo sapiens (Human), UniProt Q01959). Kind of series: Binding to dopamine transporter (DAT) in vitro, [3H]-WIN35,428 SPA. The settings on record: for Ki: [3H]-WIN35,428 radioligand; for DAT selectivity ratio versus hTAAR1 EC50: DAT Ki / hTAAR1 EC50. The procedure:
Binding to dopamine transporter (DAT) in vitro. Human embryonic kidney (HEK) 293 cells (Invitrogen, Zug, Switzerland) stably transfected with human DAT were cultured. The cells were collected and washed three times with phosphate-buffered saline (PBS). The pellets were frozen at −80° C. The pellets were then resuspended in 400 ml of 20 mM HEPES-NaOH, pH 7.4, that contained 10 mM EDTA at 4° C. After homogenization with a Polytron (Kinematica, Lucerne,
Switzerland) at 10000 rotations per minute (rpm) for 15 s, the homogenates were centrifuged at 48000×g for 30 min at 4° C. Aliquots of the membrane stocks were frozen at −80° C. All assays were performed at least three times. The test compounds were diluted in […] of binding buffer (252 mM NaCl, 5.4 mM KCl, 20 mM Na2HPO4, 3.52 mM KH2PO4, pH 7.4) and 10 point dilution curves were made and transferred to 96-well white polystyrene assay plates (Sigma-Aldrich, Buchs, Switzerland). […] Twenty microliters of binding buffer alone in the assay plate defined the total binding, whereas binding in the presence of 10 μM indatraline defined nonspecific binding. Frozen DAT membrane stocks were thawed and resuspended to a concentration of approximately 0.04 mg protein/ml binding buffer (1:1 diluted in H2O) using a polytron tissue homogenizer. The membrane homogenates (40 μg/ml) were then lightly mixed for 5-30 min with polyvinyl toluene […] wheat germ agglutinin-coated scintillation proximity assay (WGASPA; Amersham Biosciences) beads at 7.7 mg beads/ml homogenate. One hundred thirty microliters of the membrane/bead mixture were added to each well of the assay plate that contained radioligand and test compounds (final volume in each well, 200 μl) to start the assay, which was incubated for approximately 2 h at room temperature with agitation. The assay plates were then counted in the PVT SPA counting mode of a Packard Topcount. […] Non-linear regression was used to fit the data to sigmoid curves and determine IC50 values for binding and uptake. Ki values for binding and uptake were calculated using the following Cheng-Prusoff equation: Ki=IC50/(1+[S]/Km).

The next series deals with hERG potassium channel (Homo sapiens (Human), UniProt Q12809). Kind of series: hERG whole-cell patch-clamp in stably transfected CHO cells. The class given is cell-based. Particulars: for IC50: patch-clamp, CHO cells, 36±1° C.; for selectivity ratio: pH 7.4, hERG IC20 / hTAAR1 EC50, read-out: hERG selectivity ratio versus hTAAR1 EC50. The procedure:
The whole-cell patch-clamp technique was used to investigate the effects of the test items on hERG (human-ether-a-go-go related gene) potassium channels in stably transfected CHO cells near physiological temperature (36±1° C.). The effects of compounds on hERG K^+-current parameters were evaluated at 4 concentrations (0.3-3-30-300 μM) in at least 3 CHO cells stably expressing the hERG channel. For electrophysiological measurements cells were seeded onto 35 mm sterile culture dishes containing 2 ml culture medium without Hygromycin B. Cells were cultivated at a density that enabled single cells (without visible connections to neighbouring cells) to be measured. Cells were incubated at 37° C. in a humidified atmosphere with 5% CO2 (rel. humidity about 95%). The cells were continuously maintained in and passaged in sterile culture flasks containing nutrient mixture F-12 (DMEM/F-12 with L-Glutamine) supplemented with 10% foetal bovine serum and 10% penicillin/streptomycin solution. […] The 35 mm culture dishes upon which cells were seeded at a density allowing single cells to be recorded were placed on the dish holder of the microscope and continuously perfused (at approximately 1 ml/min) with the bath solution (sodium chloride 150 mM, potassium chloride 4 mM, calcium chloride 1.2 mM, magnesium chloride 1 mM, HEPES 10 mM, pH (NaOH) 7.4) at near physiological temperature (36±1° C.). After formation of a Gigaohm seal between the patch electrodes and individual hERG stably transfected CHO cells (pipette resistance range: 2.0 MΩ-7.0 Mω; seal resistance range: >1 Gω) the cell membrane across the pipette tip was ruptured to assure electrical access to the cell interior (whole-cell patch-configuration). In case the quality of the seal was poor, the process of seal formation was repeated with a different cell and a new pipette. […] This voltage protocol was run at least 10 times at intervals of 10 s. If current density was judged to be too low for measurement, another cell was recorded. […] During wash-in of the test item the voltage protocol indicated above was run continuously again at 10 s intervals until the steady-state level of block was reached. The four test item concentrations of the compound were applied sequentially to 3 cells in a cumulative manner. […] Based on the IC50 value the IC20 was estimated. Each concentration of the test item was analyzed in three experiments (n=3).
(The hERG channel carries a current that helps repolarise heart muscle cells.)

Setting [1] is: estimated based on the IC50 value.
Where [2] appears, read: human, CHO cells stably expressing hERG.
[3] abbreviates: human, CHO cells stably expressing hERG, pH 7.4, estimated based on the IC50 value.

hERG potassium channel, sequence (Q12809 whole entry): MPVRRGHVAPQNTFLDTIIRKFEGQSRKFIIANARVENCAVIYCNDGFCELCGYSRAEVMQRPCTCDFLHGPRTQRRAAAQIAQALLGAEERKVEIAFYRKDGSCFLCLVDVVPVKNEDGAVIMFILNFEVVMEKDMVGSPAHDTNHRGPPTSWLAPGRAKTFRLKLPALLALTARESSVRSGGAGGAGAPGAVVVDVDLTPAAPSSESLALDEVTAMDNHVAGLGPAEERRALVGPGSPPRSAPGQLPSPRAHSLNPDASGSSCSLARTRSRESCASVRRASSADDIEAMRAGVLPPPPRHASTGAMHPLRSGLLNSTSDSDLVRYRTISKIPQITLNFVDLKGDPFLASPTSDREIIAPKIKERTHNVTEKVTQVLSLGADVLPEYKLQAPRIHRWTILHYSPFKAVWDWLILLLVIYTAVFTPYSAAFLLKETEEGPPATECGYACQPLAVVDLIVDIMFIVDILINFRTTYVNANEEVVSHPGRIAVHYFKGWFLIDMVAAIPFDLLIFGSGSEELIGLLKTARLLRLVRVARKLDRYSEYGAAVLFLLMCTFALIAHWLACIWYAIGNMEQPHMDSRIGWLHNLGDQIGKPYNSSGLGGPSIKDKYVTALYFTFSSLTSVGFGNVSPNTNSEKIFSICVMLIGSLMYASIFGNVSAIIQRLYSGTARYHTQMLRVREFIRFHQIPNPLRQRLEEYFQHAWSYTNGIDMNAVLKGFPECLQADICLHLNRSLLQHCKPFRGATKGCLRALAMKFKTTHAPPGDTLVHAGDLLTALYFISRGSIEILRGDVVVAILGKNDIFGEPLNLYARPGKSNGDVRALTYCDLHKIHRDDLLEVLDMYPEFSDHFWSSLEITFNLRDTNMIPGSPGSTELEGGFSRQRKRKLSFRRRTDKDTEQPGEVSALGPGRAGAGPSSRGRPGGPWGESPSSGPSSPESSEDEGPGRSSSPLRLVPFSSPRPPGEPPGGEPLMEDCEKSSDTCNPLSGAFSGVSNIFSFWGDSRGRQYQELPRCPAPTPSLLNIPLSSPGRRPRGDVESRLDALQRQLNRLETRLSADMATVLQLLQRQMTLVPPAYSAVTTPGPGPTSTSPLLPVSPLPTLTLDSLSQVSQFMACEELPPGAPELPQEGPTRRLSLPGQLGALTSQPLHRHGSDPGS
human DAT, sequence (Q01959 whole entry): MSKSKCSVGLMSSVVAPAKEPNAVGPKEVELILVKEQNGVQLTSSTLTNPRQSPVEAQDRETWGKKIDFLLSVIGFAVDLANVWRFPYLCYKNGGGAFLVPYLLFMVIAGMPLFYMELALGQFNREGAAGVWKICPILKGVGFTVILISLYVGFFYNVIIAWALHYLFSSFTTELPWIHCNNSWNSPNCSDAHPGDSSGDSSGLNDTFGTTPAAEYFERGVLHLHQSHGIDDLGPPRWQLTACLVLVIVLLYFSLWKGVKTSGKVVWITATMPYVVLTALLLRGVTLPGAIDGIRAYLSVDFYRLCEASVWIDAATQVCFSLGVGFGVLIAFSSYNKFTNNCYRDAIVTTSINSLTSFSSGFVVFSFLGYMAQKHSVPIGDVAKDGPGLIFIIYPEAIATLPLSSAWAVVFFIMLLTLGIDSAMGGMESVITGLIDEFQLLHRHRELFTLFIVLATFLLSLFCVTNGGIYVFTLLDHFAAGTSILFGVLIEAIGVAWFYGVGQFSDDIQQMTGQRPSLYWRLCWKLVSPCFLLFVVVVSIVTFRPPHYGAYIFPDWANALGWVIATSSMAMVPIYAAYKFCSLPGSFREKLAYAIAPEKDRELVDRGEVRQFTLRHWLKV

What is called Ki is a measure of affinity in units of concentration, obtained from inhibition or displacement. Lower therefore signals tighter binding. For orientation: IC20 means the concentration at which the effect reaches the 20% level. For orientation: IC50 means the concentration needed to halve the response being measured. A low value points to inhibition by little substance. In the case of `CCc1[nH]nc(C(=O)Nc2ccc([C@H]3CNCCO3)cc2)c1C` [Example 1, 5-Ethyl-4-methyl-N-[4-[(2S)-morpholin-2-yl]phenyl]-1H-pyrazole-3-carboxamide], the “hTAAR1 efficacy*” value at human TAAR1 was found to be 42%. Besides, at human TAAR1 (in vitro), the “functional activity at hTAAR1” value is “partial agonist”. The Ki at human DAT and on human DAT (listed as example 1) was 27.5 µM throughout. Besides, the IC20 at hERG potassium channel (setting [1]) was 36.2 µM. This molecule also displayed an IC50 against hERG potassium channel of 217 µM.
On to `CCc1[nH]nc(C(=O)Nc2ccc([C@@H]3CNCCO3)cc2)c1C` [Example 2, 5-Ethyl-4-methyl-N-[4-[(2R)-morpholin-2-yl]phenyl]-1H-pyrazole-3-carboxamide], for which the “hTAAR1 efficacy*” value on human TAAR1 was 38%.
By EC50 is commonly meant the concentration needed to bring the measured effect to its halfway point. With `O=C(Nc1ccc([C@H]2CNCCO2)cc1)c1ccc(OCC(F)(F)F)nc1` [Example 3, N-[4-[(2S)-Morpholin-2-yl]phenyl]-6-(2,2,2-trifluoroethoxy)pyridine-3-carboxamide], at human TAAR1, the “hTAAR1 efficacy*” value was determined as 45% and the 50% effective concentration (EC50) amounted to 0.0377 µM. Moreover, on human DAT, the “Ratio DAT Ki/hTAAR1 EC50” value came out at 462 and the affinity, expressed as Ki, was 17.4 µM. Moreover, at hERG potassium channel, the “Ratio hERG IC20/hTAAR1 EC50” value is 52 and half-maximal inhibition (IC50) was put at 9.84 µM. The IC20 at hERG potassium channel (setting [1]) is 1.97 µM. Further, on hERG potassium channel (setting [2]), the selectivity ratio was found to be 52.
For the molecule `O=C(Nc1ccc([C@H]2CNCCO2)cc1)c1ccc(Cl)nc1` [Example 4, 6-Chloro-N-[4-[(2S)-morpholin-2-yl]phenyl]pyridine-3-carboxamide], on human TAAR1, the “hTAAR1 efficacy*” value amounted to 49% and the EC50 was 0.0619 µM. For the same molecule, on human DAT, the “Ratio DAT Ki/hTAAR1 EC50” value is 40; the “DAT selectivity ratio versus hTAAR1 EC50” value is 40 fold; the affinity, expressed as Ki, was 2.5 µM. Further, on hERG potassium channel, the “Ratio hERG IC20/hTAAR1 EC50” value was 201 and the IC50 was determined as 49.7 µM. Also, the concentration for an effect of 20% (IC20) on hERG potassium channel (setting [3]) was 12.4 µM.
Regarding `O=C(Nc1ccc([C@H]2CNCCO2)cc1)c1ccnc(Cl)c1` [Example 5, 2-Chloro-N-[4-[(2S)-morpholin-2-yl]phenyl]pyridine-4-carboxamide], at human TAAR1, the “hTAAR1 efficacy*” value is on record as 40% and the EC50 stood at 0.0656 µM. For the same molecule, at human DAT, the “Ratio DAT Ki/hTAAR1 EC50” value is reported as 23, the “DAT selectivity ratio versus hTAAR1 EC50” value amounted to 23 fold and affinity was put at a Ki of 1.52 µM. Besides, the affinity at human DAT (listed as example 5) corresponds to a Ki of 1.5 µM. At hERG potassium channel, the “Ratio hERG IC20/hTAAR1 EC50” value is 338 and the IC50 worked out at 81.7 µM. For the same molecule, at hERG potassium channel (setting [3]), the IC20 is 22.2 µM.
For `O=C(Nc1ccc([C@H]2CNCCO2)cc1)c1cnc(-c2ccccc2)s1` [Example 6, N-[4-[(2S)-Morpholin-2-yl]phenyl]-2-phenyl-1,3-thiazole-5-carboxamide], on human TAAR1, the “hTAAR1 efficacy*” value turned out to be 30% and the EC50 was found to be 0.08 µM. The inhibitory constant (Ki) at human DAT came to 5.93 µM. Moreover, the Ki on human DAT (listed as example 6) worked out at 5.9 µM.
`O=C(Nc1ccc([C@H]2CNCCO2)cc1)c1cc(Cl)nc(Cl)c1` [Example 7, 2,6-Dichloro-N-[4-[(2S)-morpholin-2-yl]phenyl]pyridine-4-carboxamide]: on human TAAR1, the “hTAAR1 efficacy*” value was 57% and the EC50 was found to be 0.0849 µM. Besides, on human DAT, the “Ratio DAT Ki/hTAAR1 EC50” value amounted to 9, the “DAT selectivity ratio versus hTAAR1 EC50” value amounted to 9 fold and affinity was put at a Ki of 0.79 µM. Also, on hERG potassium channel, the “Ratio hERG IC20/hTAAR1 EC50” value came out at 43 and half-maximal inhibition (IC50) was put at 11.4 µM. The IC20 at hERG potassium channel (setting [1]) was 3.67 µM. For the same molecule, the IC20 on hERG potassium channel (setting [3]) is 3.57 µM. For the same molecule, on hERG potassium channel (setting [2]), the selectivity ratio came to 43.
In the case of `Cc1c(C(=O)Nc2ccc([C@H]3CNCCO3)cc2)n[nH]c1-c1ccccc1` [Example 8, 4-Methyl-N-[4-[(2S)-morpholin-2-yl]phenyl]-5-phenyl-1H-pyrazole-3-carboxamide], on human TAAR1, the “hTAAR1 efficacy*” value stood at 33% and the EC50 is 0.109 µM. Further, at human DAT, the “Ratio DAT Ki/hTAAR1 EC50” value is 90 and the Ki was 9.77 µM. Further, on hERG potassium channel, the “Ratio hERG IC20/hTAAR1 EC50” value was 28 and the IC50 amounted to 10.8 µM. For the same molecule, at hERG potassium channel (setting [1]), the IC20 was 3.01 µM. For the same molecule, the selectivity ratio at hERG potassium channel (setting [2]) was determined as 28.
Take `O=C(Nc1ccc([C@H]2CNCCO2)cc1)c1cnc(Cl)c(Cl)c1` [Example 9, 5,6-Dichloro-N-[4-[(2S)-morpholin-2-yl]phenyl]pyridine-3-carboxamide]: at human TAAR1, the “hTAAR1 efficacy*” value is reported as 32% and the concentration giving a half-maximal response (EC50) amounted to 0.144 µM. Further, on human TAAR1 (listed as example 9), the EC50 came out at 0.144 µM. For the same molecule, on human DAT, the Ki worked out at 0.48 µM.
Regarding `O=C(Nc1ccc([C@H]2CNCCO2)cc1)c1ccc(C(F)(F)F)nc1` [Example 11, N-[4-[(2S)-Morpholin-2-yl]phenyl]-6-(trifluoromethyl)pyridine-3-carboxamide], at human TAAR1, the “hTAAR1 efficacy*” value is 46% and the EC50 is 0.203 µM. Moreover, at human TAAR1 (listed as example 11), the EC50 stood at 0.203 µM. The same molecule displayed a Ki at human DAT of 2.33 µM.
